Marks after values point to notes of the source that are not given here.
Experiments:
Settings in all cases: mean ± SD
plasma protein [1] = experiment: Plasma protein binding ratio (PPBR) by ultrafiltration, yellow catfish plasma; format: in vitro ADME, yellow catfish (Pelteobagrus fulvidraco)
Description: (§1) The detailed procedures and the pretreatment of the ultrafiltration unit (UFU) were in line with the previous reports. In brief, the nonspecific absorption (NSB) of UFU was first checked before and after pretreatment of 5% Tween 80. […] Firstly, 100 μL of the sample was used to evaluate the initial concentration before centrifugation. […] To reduce the NSB of UFU, 100 μL of 5% Tween 80 was used to treat UFU at 25 °C for 5 min, and 0.5 mL of physiological saline was used to wash off Tween 80. The NSB of UFU was repeatedly determined again in light of the above-mentioned method.
(§2) The samples of sterile physiological saline were detected without extraction by HPLC. As for the samples of plasma, 0.1 mL of plasma was decanted into a 10 mL centrifugation tube. The extraction method is the same as the reported literature.
(§3) The proportion of the mobile phase was 82:18 (water containing 0.2% formic acid and pure acetonitrile, v/v), following the flow rate of 0.8 mL/min. The excitation wavelength was 280 nm. The emission wavelength was 450 nm.

plasma protein [2] = experiment: Plasma protein binding ratio (PPBR) by ultrafiltration, grass carp plasma; format: in vitro ADME, grass carp (Ctenopharyngodon idella)
Description: as §1, §2, §3

plasma protein [3] = experiment: Plasma protein binding ratio (PPBR) by ultrafiltration, largemouth bass plasma; format: in vitro ADME, largemouth bass (Micropterus salmoides)
Description: as §1, §2, §3

[4] = 1 μg/mL, 25 °C, n = 3, listed as Enrofloxacin
[5] = 5 μg/mL, 15 °C, n = 3, listed as Enrofloxacin
[6] = 5 μg/mL, 20 °C, n = 3, listed as Enrofloxacin
[7] = 5 μg/mL, 25 °C, n = 3, listed as Enrofloxacin
[8] = 10 μg/mL, 15 °C, n = 3, listed as EF
[9] = 10 μg/mL, 15 °C, n = 3, listed as Enrofloxacin
[10] = 10 μg/mL, 20 °C, n = 3, listed as Enrofloxacin
[11] = 10 μg/mL, 25 °C, n = 3, listed as Enrofloxacin
[12] = 1 μg/mL, 15 °C, n = 3, listed as EF

PPBRs (%) (plasma protein [1]; 1 μg/mL, 20 °C, n = 3): 46.10 ± 3.13 ^a %
PPBRs (%) (plasma protein [1]; 1 μg/mL, 20 °C, n = 3, listed as EF): 46.10%
PPBRs (%) (plasma protein [1]; 1 μg/mL, 25 °C, n = 3): 43.90 ± 3.62 ^a %
PPBRs (%) (plasma protein [1]; 1 μg/mL, 25 °C, n = 3, listed as EF): 43.9%
PPBRs (%) (plasma protein [1]; [4]): 43.90 ± 3.62 ^ab %
PPBRs (%) (plasma protein [1]; 5 μg/mL, 15 °C, n = 3): 22.53 ± 6.86 ^b %
PPBRs (%) (plasma protein [1]; 5 μg/mL, 15 °C, n = 3, listed as EF): 22.53%
PPBRs (%) (plasma protein [1]; [5]): 22.53 ± 6.86 ^a %
PPBRs (%) (plasma protein [1]; 5 μg/mL, 20 °C, n = 3): 21.24 ± 6.93 ^b %
PPBRs (%) (plasma protein [1]; [6]): 21.24 ± 6.93 ^a %
PPBRs (%) (plasma protein [1]; 5 μg/mL, 25 °C, n = 3): 17.29 ± 0.69 ^b %
PPBRs (%) (plasma protein [1]; 5 μg/mL, 25 °C, n = 3, listed as EF): 17.29%
PPBRs (%) (plasma protein [1]; [7]): 17.29 ± 0.69 ^a %
PPBRs (%) (plasma protein [1]; 10 μg/mL, 15 °C, n = 3): 9.66 ± 4.09 ^c %
PPBRs (%) (plasma protein [1]; [8]): 9.66%
PPBRs (%) (plasma protein [1]; [9]): 9.66 ± 4.09 ^ab %
PPBRs (%) (plasma protein [1]; 10 μg/mL, 20 °C, n = 3): 13.52 ± 4.74 ^b %
PPBRs (%) (plasma protein [1]; 10 μg/mL, 20 °C, n = 3, listed as EF): 13.52%
PPBRs (%) (plasma protein [1]; [10]): 13.52 ± 4.74 ^a %
PPBRs (%) (plasma protein [1]; 10 μg/mL, 25 °C, n = 3): 4.36 ± 0.58 ^c %
PPBRs (%) (plasma protein [1]; 10 μg/mL, 25 °C, n = 3, listed as EF): 4.36%
PPBRs (%) (plasma protein [1]; [11]): 4.36 ± 0.58 ^b %
PPBRs (%) (plasma protein [2]; 1 μg/mL, 15 °C, n = 3): 60.52 ± 0.99 ^a %
PPBRs (%) (plasma protein [2]; [12]): 60.52%
PPBRs (%) (plasma protein [2]; 1 μg/mL, 20 °C, n = 3): 51.27 ± 1.56 ^a %
PPBRs (%) (plasma protein [2]; 1 μg/mL, 20 °C, n = 3, listed as Enrofloxacin): 51.27 ± 1.56 ^b %
PPBRs (%) (plasma protein [2]; 1 μg/mL, 25 °C, n = 3): 50.09 ± 2.06 ^a %
PPBRs (%) (plasma protein [2]; [4]): 50.09 ± 2.06 ^b %
PPBRs (%) (plasma protein [2]; 5 μg/mL, 15 °C, n = 3): 33.77 ± 0.07 ^B %
PPBRs (%) (plasma protein [2]; [5]): 33.77 ± 0.07 ^a %
PPBRs (%) (plasma protein [2]; 5 μg/mL, 20 °C, n = 3): 22.07 ± 1.19 ^B %
PPBRs (%) (plasma protein [2]; 5 μg/mL, 25 °C, n = 3): 23.36 ± 3.86 ^B %
PPBRs (%) (plasma protein [2]; [7]): 23.36 ± 3.86 ^a %
PPBRs (%) (plasma protein [2]; 10 μg/mL, 15 °C, n = 3): 16.95 ± 1.81 ^C %
PPBRs (%) (plasma protein [2]; [8]): 16.95%
PPBRs (%) (plasma protein [2]; [9]): 16.95 ± 1.81 ^a %
PPBRs (%) (plasma protein [2]; 10 μg/mL, 20 °C, n = 3): 8.34 ± 2.29 ^C %
PPBRs (%) (plasma protein [2]; [10]): 8.34 ± 2.29 ^b %
PPBRs (%) (plasma protein [2]; 10 μg/mL, 25 °C, n = 3): 5.52 ± 1.99 ^C %
PPBRs (%) (plasma protein [2]; [11]): 5.52 ± 1.99 ^B %
PPBRs (%) (plasma protein [3]; 1 μg/mL, 15 °C, n = 3): 35.11 ± 5.18 ^a %
PPBRs (%) (plasma protein [3]; [12]): 35.11%
PPBRs (%) (plasma protein [3]; 1 μg/mL, 20 °C, n = 3): 37.93 ± 6.11 ^a %
PPBRs (%) (plasma protein [3]; 1 μg/mL, 25 °C, n = 3): 39.12 ± 1.72 ^a %
PPBRs (%) (plasma protein [3]; 5 μg/mL, 15 °C, n = 3): 14.39 ± 0.61 ^b %
PPBRs (%) (plasma protein [3]; [5]): 14.39 ± 0.61 ^a %
PPBRs (%) (plasma protein [3]; 5 μg/mL, 20 °C, n = 3): 17.46 ± 2.82 ^b %
PPBRs (%) (plasma protein [3]; [6]): 17.46 ± 2.82 ^ab %
PPBRs (%) (plasma protein [3]; 5 μg/mL, 25 °C, n = 3): 23.20 ± 5.87 ^b %
PPBRs (%) (plasma protein [3]; 10 μg/mL, 15 °C, n = 3): 9.30 ± 5.15 ^C %
PPBRs (%) (plasma protein [3]; [8]): 9.30%
PPBRs (%) (plasma protein [3]; [9]): 9.30 ± 5.15 ^a %
PPBRs (%) (plasma protein [3]; 10 μg/mL, 20 °C, n = 3): 10.84 ± 1.08 ^C %
PPBRs (%) (plasma protein [3]; [10]): 10.84 ± 1.08 ^a %
PPBRs (%) (plasma protein [3]; 10 μg/mL, 25 °C, n = 3): 7.77 ± 2.10 ^C %
PPBRs (%) (plasma protein [3]; [11]): 7.77 ± 2.10 ^a %
Compound: CCN1CCN(c2cc3c(cc2F)c(=O)c(C(=O)O)cn3C2CC2)CC1 [Enrofloxacin (EF), Enrofloxacin]

— publication PMC10251843 (Animals : an Open Access Journal from MDPI, 2023)
